Source: patent US10294243B2, “Bicyclic compounds as pesticides” (BAYER CROPSCIENCE AKTIENGESELLSCHAFT, priority 2014, dated 2019)
Read-outs that look alike come from different tables or passages of the source.

Columns and labels:
[1] = log P by HPLC on reversed-phase C18 columns (OECD Guideline 117); method [a] acidic pH 2.7, method [b] neutral pH 7.8; assay type: physicochemical; conditions: for chromatographic logP: reversed-phase C18 HPLC column
Myzus persicae = Myzus persicae - spray test (Chinese cabbage leaf discs); assay type: in vivo; conditions: after 6 days; for pest or weed control at 500 g/ha: Myzus persicae, foliar, 144 h, read-out: efficacy (aphids killed)
Method: Myzus persicae—Spray Test
Solvent: 78 parts by weight of acetone • • 1.5 parts by weight of dimethylformamide
Emulsifier: alkylaryl polyglycol ether
To produce further test concentrations, the preparation is diluted with emulsifier-containing water.
After 6 days, the efficacy in % is determined 100% means that all the aphids have been killed; 0% means that none of the aphids have been killed.

[2] = HPLC reversed-phase C18, method [a] acidic pH 2.7, read-out: logP[a]
[3] = HPLC reversed-phase C18, method [b] neutral pH 7.8, read-out: logP[b]
[4] = HPLC reversed-phase C18, method [b] neutral pH 7.8
[5] = HPLC reversed-phase C18, method [a] acidic pH 2.7

CC(C)n1cnc2nc(-c3cccnc3)sc2c1=O [Compound 1, 6-Isopropyl-2-(pyridin-3-yl)[1,3]thiazolo[4,5-d]pyrimidin-7(6H)-one]
chromatographic logP [1, 2]: 1.35 | chromatographic logP [1, 3]: 1.43 | pest or weed control at 500 g/ha (Myzus persicae; application rate 500 g/ha): 100%

O=c1c2sc(-c3cccnc3)nc2ncn1C1CC1 [Compound 2]
logP[b] [1, 4]: 1.05 | efficacy (aphids killed) (Myzus persicae; application rate 500 g/ha): 100%

CC(C)Cn1cnc2nc(-c3cccnc3)sc2c1=O [Compound 3, 6-Isobutyl-2-(pyridin-3-yl)[1,3]thiazolo[4,5-d]pyrimidin-7(6H)-one]
chromatographic logP [1, 2]: 1.7 | pest or weed control at 500 g/ha (Myzus persicae; application rate 500 g/ha): 100%

O=c1c2sc(-c3cccnc3)nc2ncn1CC(F)F [Compound 4]
logP[a] [1, 5]: 1.19 | efficacy (aphids killed) (Myzus persicae; application rate 500 g/ha): 100%

O=c1c2sc(-c3cccnc3)nc2ncn1CC(F)(F)F [Compound 5, 2-(Pyridin-3-yl)-6-(2,2,2-trifluoroethyl)[1,3]thiazolo[4,5-d]pyrimidin-7(6H)-one]
chromatographic logP [1, 2]: 1.54 | pest or weed control at 500 g/ha (Myzus persicae; application rate 500 g/ha): 100%

O=c1c2sc(-c3cccnc3)nc2ncn1CC(F)(F)C(F)F [Compound 6]
logP[a] [1, 5]: 1.57 | efficacy (aphids killed) (Myzus persicae; application rate 500 g/ha): 90%

CN(C)C(=O)Cn1cnc2nc(-c3cccnc3)sc2c1=O [Compound 7]
logP[a] [1, 5]: 0.65 | efficacy (aphids killed) (Myzus persicae; application rate 500 g/ha): 100%

Cc1cccc(-n2cnc3nc(-c4cccnc4)sc3c2=O)c1 [Compound 8]
logP[a] [1, 5]: 1.94 | logP[b] [1, 4]: 1.94 | efficacy (aphids killed) (Myzus persicae; application rate 500 g/ha): 90%

O=c1c2sc(-c3cccnc3)nc2ncn1-c1cccc(C(F)(F)F)c1 [Compound 9]
logP[a] [1, 5]: 2.26 | logP[b] [1, 4]: 2.23 | efficacy (aphids killed) (Myzus persicae; application rate 500 g/ha): 100%

COc1ccc(-n2cnc3nc(-c4cccnc4)sc3c2=O)cc1 [Compound 12]
logP[a] [1, 5]: 1.73 | logP[b] [1, 4]: 1.76 | efficacy (aphids killed) (Myzus persicae; application rate 500 g/ha): 90%

CSc1cccc(-n2cnc3nc(-c4cccnc4)sc3c2=O)c1 [Compound 13]
logP[a] [1, 5]: 2.09 | logP[b] [1, 4]: 2.08 | efficacy (aphids killed) (Myzus persicae; application rate 500 g/ha): 90%

C[S+]([O-])c1cccc(-n2cnc3nc(-c4cccnc4)sc3c2=O)c1 (stereo not shown) [Compound 14]
logP[a] [1, 5]: 1.04 | logP[b] [1, 4]: 1.09 | efficacy (aphids killed) (Myzus persicae; application rate 500 g/ha): 90%

CSc1cc(-n2cnc3nc(-c4cccnc4)sc3c2=O)ccc1C [Compound 15]
logP[a] [1, 5]: 2.42 | logP[b] [1, 4]: 2.35 | efficacy (aphids killed) (Myzus persicae; application rate 500 g/ha): 100%

Cc1ccc(-n2cnc3nc(-c4cccnc4)sc3c2=O)cc1[S+](C)[O-] (stereo not shown) [Compound 16]
logP[a] [1, 5]: 1.25 | logP[b] [1, 4]: 1.26 | efficacy (aphids killed) (Myzus persicae; application rate 500 g/ha): 90%

O=c1c2sc(-c3cccnc3)nc2ncn1-c1ccc(F)c(SC(F)(F)F)c1 [Compound 17]
logP[a] [1, 5]: 2.70 | logP[b] [1, 4]: 2.66 | efficacy (aphids killed) (Myzus persicae; application rate 500 g/ha): 90%

O=c1c2sc(-c3cccnc3)nc2ncn1-c1ccc(F)c([S+]([O-])C(F)(F)F)c1 (stereo not shown) [Compound 18]
logP[a] [1, 5]: 2.01 | logP[b] [1, 4]: 1.95 | efficacy (aphids killed) (Myzus persicae; application rate 500 g/ha): 90%

CCSc1cccc(-n2cnc3nc(-c4cccnc4)sc3c2=O)c1 [Compound 19]
logP[a] [1, 5]: 2.39 | logP[b] [1, 4]: 2.43 | efficacy (aphids killed) (Myzus persicae; application rate 100 g/ha): 90%

CC[S+]([O-])c1cccc(-n2cnc3nc(-c4cccnc4)sc3c2=O)c1 (stereo not shown) [Compound 20]
logP[a] [1, 5]: 1.24 | logP[b] [1, 4]: 1.26 | efficacy (aphids killed) (Myzus persicae; application rate 500 g/ha): 100%

Cc1cc(F)c(-n2cnc3nc(-c4cccnc4)sc3c2=O)cc1SCC(F)(F)F [Compound 21, 6-{2-Fluoro-4-methyl-5-[(2,2,2-trifluoroethyl)sulphanyl]phenyl}-2-(pyridin-3-yl)[1,3]thiazolo[4,5-d]pyrimidin-7(6H)-one]
chromatographic logP [1, 2]: 2.95 | chromatographic logP [1, 3]: 2.91 | pest or weed control at 500 g/ha (Myzus persicae; application rate 500 g/ha): 90%

Cc1cc(F)c(-n2cnc3nc(-c4cccnc4)sc3c2=O)cc1[S+]([O-])CC(F)(F)F (stereo not shown) [Compound 22, 6-{2-Fluoro-4-methyl-5-[(2,2,2-trifluoroethyl)sulphinyl]phenyl}-2-(pyridin-3-yl)[1,3]thiazolo[4,5-d]pyrimidin-7(6H)-one]
chromatographic logP [1, 2]: 2.01 | chromatographic logP [1, 3]: 1.98 | pest or weed control at 500 g/ha (Myzus persicae; application rate 500 g/ha): 90%

Cc1cc(F)c(-n2cnc3nc(-c4ccc[n+]([O-])c4)sc3c2=O)cc1[S+]([O-])CC(F)(F)F (stereo not shown) [Compound 23, 6-{2-Fluoro-4-methyl-5-[(2,2,2-trifluoroethyl)sulphinyl]phenyl}-2-(1-oxidopyridin-3-yl)[1,3]thiazolo[4,5-d]pyrimidin-7(6H)-one]
chromatographic logP [1, 2]: 1.49 | chromatographic logP [1, 3]: 1.45 | pest or weed control at 500 g/ha (Myzus persicae; application rate 500 g/ha): 100%

CC(C)Sc1cccc(-n2cnc3nc(-c4cccnc4)sc3c2=O)c1 [Compound 24]
logP[a] [1, 5]: 2.76 | logP[b] [1, 4]: 2.70 | efficacy (aphids killed) (Myzus persicae; application rate 500 g/ha): 90%

CC(C)[S+]([O-])c1cccc(-n2cnc3nc(-c4cccnc4)sc3c2=O)c1 (stereo not shown) [Compound 25]
logP[a] [1, 5]: 1.39 | logP[b] [1, 4]: 1.43 | efficacy (aphids killed) (Myzus persicae; application rate 500 g/ha): 90%

CC(C)CSc1cccc(-n2cnc3nc(-c4cccnc4)sc3c2=O)c1 [Compound 26]
logP[a] [1, 5]: 3.18 | logP[b] [1, 4]: 3.08 | efficacy (aphids killed) (Myzus persicae; application rate 500 g/ha): 90%

CC(C)C[S+]([O-])c1cccc(-n2cnc3nc(-c4cccnc4)sc3c2=O)c1 (stereo not shown) [Compound 27]
logP[a] [1, 5]: 1.73 | logP[b] [1, 4]: 1.68 | efficacy (aphids killed) (Myzus persicae; application rate 500 g/ha): 90%

O=c1c2sc(-c3cccnc3)nc2ncn1Cc1cccc(C(F)(F)F)c1 [Compound 28, 2-(Pyridin-3-yl)-6-[3-(trifluoromethyl)benzyl][1,3]thiazolo[4,5-d]pyrimidin-7(6H)-one]
chromatographic logP [1, 2]: 2.47 | chromatographic logP [1, 3]: 2.43

COc1cccc(Cn2cnc3nc(-c4cccnc4)sc3c2=O)c1 [Compound 32]
logP[a] [1, 5]: 1.91 | logP[b] [1, 4]: 1.92

O=c1c2sc(-c3cccnc3)nc2ncn1Cc1ccccn1 [Compound 34, 2-(Pyridin-3-yl)-6-(pyridin-2-ylmethyl)[1,3]thiazolo[4,5-d]pyrimidin-7(6H)-one]
chromatographic logP [1, 2]: 1.09 | pest or weed control at 500 g/ha (Myzus persicae; application rate 500 g/ha): 100%

O=c1c2sc(-c3cccnc3)nc2ncn1Cc1cccnc1 [Compound 35]
logP[b] [1, 4]: 0.72 | efficacy (aphids killed) (Myzus persicae; application rate 500 g/ha): 100%

O=c1c2sc(-c3cccnc3)nc2ncn1Cc1ccncc1 [Compound 36]
logP[a] [1, 5]: 0.55 | efficacy (aphids killed) (Myzus persicae; application rate 500 g/ha): 90%

Cc1nc(Cn2cnc3nc(-c4cccnc4)sc3c2=O)cs1 [Compound 38, 6-[(2-Methyl-1,3-thiazol-4-yl)methyl]-2-(pyridin-3-yl)[1,3]thiazolo[4,5-d]pyrimidin-7(6H)-one]
chromatographic logP [1, 2]: 1.36 | chromatographic logP [1, 3]: 1.42

O=c1c2sc(-c3cccnc3)nc2ncn1CC1CC1 [Compound 39, 6-(Cyclopropylmethyl)-2-(pyridin-3-yl)[1,3]thiazolo[4,5-d]pyrimidin-7(6H)-one]
chromatographic logP [1, 2]: 1.53 | chromatographic logP [1, 3]: 1.52 | pest or weed control at 500 g/ha (Myzus persicae; application rate 500 g/ha): 100%

O=c1c2sc(-c3cccnc3)nc2ncn1-c1ccccc1F [Compound 40]
logP[a] [1, 5]: 1.70 | logP[b] [1, 4]: 1.69 | efficacy (aphids killed) (Myzus persicae; application rate 500 g/ha): 100%

CN(C)S(=O)(=O)c1cccc(-n2cnc3nc(-c4cccnc4)sc3c2=O)c1 [Compound 42, N,N-Dimethyl-3-[7-oxo-2-(pyridin-3-yl)[1,3]thiazolo[4,5-d]pyrimidin-6(7H)-yl]benzenesulphonamide]
chromatographic logP [1, 2]: 1.63 | chromatographic logP [1, 3]: 1.72

CN(C)C(=O)c1cc2cc(-n3cnc4nc(-c5cccnc5)sc4c3=O)ccc2s1 [Compound 65]
logP[a] [1, 5]: 1.70 | logP[b] [1, 4]: 1.70

O=c1c2sc(-c3cccnc3)nc2ncn1-c1ccccc1SCC(F)(F)F [Compound 68, 2-(Pyridin-3-yl)-6-{2-[(2,2,2-trifluoroethyl)sulphanyl]phenyl}[1,3]thiazolo[4,5-d]pyrimidin-7(6H)-one]
chromatographic logP [1, 2]: 2.34 | chromatographic logP [1, 3]: 2.29

O=c1c2sc(-c3cccnc3)nc2ncn1-c1ccccc1[S+]([O-])CC(F)(F)F (stereo not shown) [Compound 69, 2-(Pyridin-3-yl)-6-{2-[(2,2,2-trifluoroethyl)sulphinyl]phenyl}[1,3]thiazolo[4,5-d]pyrimidin-7(6H)-one]
chromatographic logP [1, 2]: 1.74 | chromatographic logP [1, 3]: 1.75

Cc1ccc(-n2cnc3nc(-c4cncnc4)sc3c2=O)cc1 [Compound 75]
logP[a] [1, 5]: 1.80 | logP[b] [1, 4]: 1.72
